Patent publication US20060241297A1, “Pyridinylamino-pyrimidine derivatives as protein kinase inhibitors” (Cyclacel Limited, priority 2003, published 2006)
Like-named read-outs stand apart in the source and are kept apart here.

Assays:
[1] = test system: Saos-2; experiment: 72-h MTT cytotoxicity assay; type: cell-based; details: Homo sapiens
Protocol: (§1) The compounds from the examples above were subjected to a standard cellular proliferation assay using human tumour cell lines obtained from the ATCC (American Type Culture Collection, 10801 University Boulevard, Manessas, Va. 20110-2209, USA). Standard 72-h MTT (thiazolyl blue; 3-[4,5-dimethylthiazol-2-yl]-2,5-diphenyltetrazolium bromide) assays were performed. In short: cells were seeded into 96-well plates according to doubling time and incubated overnight at 37° C. Test compounds were made up in DMSO and a 1/3 dilution series prepared in 100 μL cell media, added to cells (in triplicates) and incubated for 72 ho at 37° C. MTT was made up as a stock of 5 mg/mL in cell media and filter-sterilised. Media was removed from cells followed by a wash with 200 μL PBS. MTT solution was then added at 20 μL per well and incubated in the dark at 37° C. for 4 h. MTT solution was removed and cells again washed with 200 μL PBS. MTT dye was solubilised with 200 μL per well of DMSO with agitation. Absorbance was read at 540 nm and data analysed using curve-fitting software (GraphPad Prism version 3.00 for Windows, GraphPad Software, San Diego Calif. USA) to determine IC50 values (concentration of test compound which inhibits cell growth by 50%). Various modifications and variations of the described aspects of the invention will be apparent to those skilled in the art without departing from the scope and spirit of the invention. Although the invention has been described in connection with specific preferred embodiments, it should be understood that the invention as claimed should not be unduly limited to such specific embodiments. Indeed, various modifications of the described modes of carrying out the invention which are obvious to those skilled in the relevant fields are intended to be within the scope of the following claims.

[2] = test system: A549; experiment: 72-h MTT cytotoxicity assay; type: cell-based; details: Homo sapiens
Protocol: as §1

[3] = test system: HT29; experiment: 72-h MTT cytotoxicity assay; type: cell-based; details: Homo sapiens, HT-29
Protocol: as §1

[4] = biological target: CDK4/cyclin D1 (Homo sapiens, UniProt P11802); experiment: Kinase assay, incorporation of radioactive phosphate from ATP; type: biochemical; details: 100 μM ATP, 30° C.; read-out: Kinase inhibition Ki CDK4/cyclin D1
Chain of CDK4/cyclin D1 (P11802 whole entry): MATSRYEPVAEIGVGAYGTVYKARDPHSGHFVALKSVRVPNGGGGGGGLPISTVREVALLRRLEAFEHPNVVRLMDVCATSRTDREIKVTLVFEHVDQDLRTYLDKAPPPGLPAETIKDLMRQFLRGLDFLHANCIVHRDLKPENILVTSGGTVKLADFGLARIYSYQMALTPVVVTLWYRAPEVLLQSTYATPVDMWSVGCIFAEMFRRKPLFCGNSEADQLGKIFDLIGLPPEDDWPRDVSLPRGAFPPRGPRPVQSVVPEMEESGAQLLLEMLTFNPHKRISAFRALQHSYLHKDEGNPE
Chain of CDK4/cyclin D1 (P24385 whole entry partner): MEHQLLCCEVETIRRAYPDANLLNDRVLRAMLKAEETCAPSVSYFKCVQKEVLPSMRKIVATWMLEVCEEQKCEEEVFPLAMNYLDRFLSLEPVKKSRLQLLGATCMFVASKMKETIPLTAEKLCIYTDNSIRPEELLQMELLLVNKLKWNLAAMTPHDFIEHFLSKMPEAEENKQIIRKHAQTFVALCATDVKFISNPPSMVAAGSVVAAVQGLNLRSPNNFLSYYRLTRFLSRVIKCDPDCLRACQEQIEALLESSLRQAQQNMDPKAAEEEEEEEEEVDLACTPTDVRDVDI
Protocol: (§2) The compounds from the examples above were investigated for their ability to inhibit the enzymatic activity of various protein kinases. This was achieved by measurement of incorporation of radioactive phosphate from ATP into appropriate polypeptide substrates. Recombinant protein kinases and kinase complexes were produced or obtained commercially. Assays were performed using 96-well plates and appropriate assay buffers (typically 25 mM β-glycerophosphate, 20 mM MOPS, 5 mM EGTA, 1 mM DTT, 1 mM […], pH 7.4), into which were added 2-4 μg of active enzyme with appropriate substrates. The reactions were initiated by addition of Mg/ATP mix (15 mM MgCl2+100 μM ATP with 30-50 kBq per well of [γ-^32P]-ATP) and mixtures incubated as required at 30° C. Reactions were stopped on ice, followed by filtration through p81 filterplates or GF/C filterplates (Whatman Polyfiltronics, Kent, UK). After washing 3 times with 75 mM aq orthophosphoric acid, plates were dried, scintillant added and incorporated radioactivity measured in a scintillation counter (TopCount, Packard Instruments, Pangboume, Berks, UK). Compounds for kinase assay were made up as 10 mM stocks in DMSO and diluted into 10% DMSO in assay buffer. Data was analysed using curve-fitting software (GraphPad Prism version 3.00 for Windows, GraphPad Software, San Diego Calif. USA) to determine IC50 values (concentration of test compound which inhibits kinase activity by 50%.).

[5] = biological target: CDK9/cyclin T1 (Homo sapiens, UniProt P50750); experiment: as above; type: biochemical; details: 100 μM ATP, 30° C.; read-out: Kinase inhibition Ki CDK9/cyclin T1
Chain of CDK9/cyclin T1 (P50750 whole entry): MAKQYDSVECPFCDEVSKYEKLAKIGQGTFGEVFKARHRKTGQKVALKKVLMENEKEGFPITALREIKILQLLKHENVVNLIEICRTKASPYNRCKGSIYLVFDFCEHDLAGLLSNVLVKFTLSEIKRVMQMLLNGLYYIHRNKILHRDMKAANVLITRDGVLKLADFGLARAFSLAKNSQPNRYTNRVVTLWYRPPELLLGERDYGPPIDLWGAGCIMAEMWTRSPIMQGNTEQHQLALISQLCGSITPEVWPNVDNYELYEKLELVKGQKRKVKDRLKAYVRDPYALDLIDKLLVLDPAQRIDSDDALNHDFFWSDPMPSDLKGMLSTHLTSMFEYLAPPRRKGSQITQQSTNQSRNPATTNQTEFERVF
Chain of CDK9/cyclin T1 (O60563 whole entry partner): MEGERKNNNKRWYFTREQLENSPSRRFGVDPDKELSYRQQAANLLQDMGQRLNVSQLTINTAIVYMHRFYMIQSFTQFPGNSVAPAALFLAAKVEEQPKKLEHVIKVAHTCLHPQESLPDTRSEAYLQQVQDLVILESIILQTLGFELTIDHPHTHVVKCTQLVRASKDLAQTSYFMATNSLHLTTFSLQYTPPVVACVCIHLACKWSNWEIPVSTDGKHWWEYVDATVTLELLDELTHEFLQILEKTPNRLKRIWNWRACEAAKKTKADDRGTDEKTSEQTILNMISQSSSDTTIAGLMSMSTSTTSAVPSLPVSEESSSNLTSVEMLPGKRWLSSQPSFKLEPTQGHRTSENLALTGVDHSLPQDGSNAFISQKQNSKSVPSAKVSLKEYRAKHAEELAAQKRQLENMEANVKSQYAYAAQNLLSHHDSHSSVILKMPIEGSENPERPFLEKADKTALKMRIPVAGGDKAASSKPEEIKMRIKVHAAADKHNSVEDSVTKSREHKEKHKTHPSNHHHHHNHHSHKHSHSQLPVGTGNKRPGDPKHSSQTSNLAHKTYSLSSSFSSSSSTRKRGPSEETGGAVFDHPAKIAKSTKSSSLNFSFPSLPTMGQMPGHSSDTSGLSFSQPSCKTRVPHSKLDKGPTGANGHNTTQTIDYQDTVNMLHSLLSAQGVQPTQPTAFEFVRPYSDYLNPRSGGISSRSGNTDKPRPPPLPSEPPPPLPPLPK
Protocol: as §2

[6] = biological target: CDK2/cyclin E (Homo sapiens, UniProt P24941); experiment: as above; type: biochemical; details: 100 μM ATP, 30° C.; read-out: Kinase inhibition Ki CDK2/cyclin E
Protocol: as §2

[7] = test system: transformed human cell lines (A549, HT29, Saos-2); experiment: 72-h MTT cytotoxicity assay, average over cell lines; type: cell-based
Protocol: as §1

[8] = biological target: CDK1/cyclin B (Homo sapiens, UniProt P06493); experiment: Kinase assay, incorporation of radioactive phosphate from ATP; type: biochemical; details: 100 μM ATP, 30° C.; read-out: Kinase inhibition Ki CDK1/cyclin B
Chain of CDK1/cyclin B (P06493 whole entry): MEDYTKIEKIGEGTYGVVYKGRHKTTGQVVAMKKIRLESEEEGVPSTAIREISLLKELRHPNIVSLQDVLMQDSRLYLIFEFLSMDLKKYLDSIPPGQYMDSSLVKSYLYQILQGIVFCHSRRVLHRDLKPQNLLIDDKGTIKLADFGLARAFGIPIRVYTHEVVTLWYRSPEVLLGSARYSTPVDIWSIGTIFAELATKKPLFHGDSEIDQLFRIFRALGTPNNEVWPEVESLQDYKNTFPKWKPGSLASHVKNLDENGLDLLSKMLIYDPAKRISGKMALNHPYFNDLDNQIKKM
Chain of CDK1/cyclin B (P14635 whole entry partner): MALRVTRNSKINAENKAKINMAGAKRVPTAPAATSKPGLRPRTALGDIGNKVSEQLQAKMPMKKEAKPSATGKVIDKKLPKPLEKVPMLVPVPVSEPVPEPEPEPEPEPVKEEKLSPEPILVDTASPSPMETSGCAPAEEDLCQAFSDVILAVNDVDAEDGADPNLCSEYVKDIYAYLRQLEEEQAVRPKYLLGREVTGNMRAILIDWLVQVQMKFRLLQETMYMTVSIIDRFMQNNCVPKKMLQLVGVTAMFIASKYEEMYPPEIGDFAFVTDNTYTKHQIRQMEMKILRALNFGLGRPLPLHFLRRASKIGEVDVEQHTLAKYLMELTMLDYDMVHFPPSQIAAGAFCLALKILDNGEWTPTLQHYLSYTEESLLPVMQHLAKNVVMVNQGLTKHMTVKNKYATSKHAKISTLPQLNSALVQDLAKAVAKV
Protocol: as §2

[9] = biological target: GSK3β (Homo sapiens, UniProt P49841); experiment: as above; type: biochemical; details: 100 μM ATP, 30° C.; read-out: Kinase inhibition Ki GSK3β
Chain of GSK3β (P49841 whole entry): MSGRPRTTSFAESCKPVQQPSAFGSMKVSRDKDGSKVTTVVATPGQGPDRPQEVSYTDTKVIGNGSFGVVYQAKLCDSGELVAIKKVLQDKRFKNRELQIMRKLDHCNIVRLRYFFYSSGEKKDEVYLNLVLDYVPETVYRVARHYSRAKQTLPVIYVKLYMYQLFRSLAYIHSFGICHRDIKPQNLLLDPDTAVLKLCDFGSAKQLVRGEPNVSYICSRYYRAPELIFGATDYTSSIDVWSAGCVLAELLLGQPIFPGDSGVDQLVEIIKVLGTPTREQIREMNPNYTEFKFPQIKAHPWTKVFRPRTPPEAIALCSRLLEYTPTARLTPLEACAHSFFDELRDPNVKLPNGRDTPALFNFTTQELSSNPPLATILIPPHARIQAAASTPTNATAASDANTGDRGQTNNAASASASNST
Protocol: as §2

[10] = biological target: CDK7/cyclin H (Homo sapiens, UniProt P50613); experiment: as above; type: biochemical; details: 100 μM ATP, 30° C.; read-out: Kinase inhibition Ki CDK7/cyclin H
Chain of CDK7/cyclin H (P50613 whole entry): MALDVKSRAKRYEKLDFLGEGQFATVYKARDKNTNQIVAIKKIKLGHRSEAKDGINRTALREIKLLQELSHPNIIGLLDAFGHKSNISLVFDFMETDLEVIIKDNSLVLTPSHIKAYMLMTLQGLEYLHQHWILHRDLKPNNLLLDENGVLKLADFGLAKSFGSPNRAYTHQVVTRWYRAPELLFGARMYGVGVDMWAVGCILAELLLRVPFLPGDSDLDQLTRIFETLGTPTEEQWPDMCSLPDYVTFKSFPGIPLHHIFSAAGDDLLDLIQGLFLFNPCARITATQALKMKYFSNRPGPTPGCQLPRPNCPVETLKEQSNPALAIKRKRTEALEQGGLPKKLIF
Chain of CDK7/cyclin H (P51946 whole entry partner): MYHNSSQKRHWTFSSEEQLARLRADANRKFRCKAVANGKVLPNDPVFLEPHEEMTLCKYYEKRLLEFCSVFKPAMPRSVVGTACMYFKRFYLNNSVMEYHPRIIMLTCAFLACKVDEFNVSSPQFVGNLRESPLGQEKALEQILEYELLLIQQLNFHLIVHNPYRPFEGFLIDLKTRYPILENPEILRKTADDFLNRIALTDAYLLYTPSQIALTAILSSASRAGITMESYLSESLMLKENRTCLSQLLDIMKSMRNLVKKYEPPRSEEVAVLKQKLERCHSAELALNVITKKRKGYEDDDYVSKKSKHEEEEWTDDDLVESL
Protocol: as §2

[11] = biological target: CDK2/cyclin A (Homo sapiens, UniProt P24941); experiment: as above; type: biochemical; details: 100 μM ATP, 30° C.; read-out: Kinase inhibition Ki CDK2/cyclin A
Protocol: as §2

[12] = biological target: T1, Aurora-A (Homo sapiens, UniProt O14965); experiment: as above; type: biochemical; details: 100 μM ATP, 30° C.; read-out: Kinase inhibition Ki Aurora-A
T1 sequence (O14965 1-403): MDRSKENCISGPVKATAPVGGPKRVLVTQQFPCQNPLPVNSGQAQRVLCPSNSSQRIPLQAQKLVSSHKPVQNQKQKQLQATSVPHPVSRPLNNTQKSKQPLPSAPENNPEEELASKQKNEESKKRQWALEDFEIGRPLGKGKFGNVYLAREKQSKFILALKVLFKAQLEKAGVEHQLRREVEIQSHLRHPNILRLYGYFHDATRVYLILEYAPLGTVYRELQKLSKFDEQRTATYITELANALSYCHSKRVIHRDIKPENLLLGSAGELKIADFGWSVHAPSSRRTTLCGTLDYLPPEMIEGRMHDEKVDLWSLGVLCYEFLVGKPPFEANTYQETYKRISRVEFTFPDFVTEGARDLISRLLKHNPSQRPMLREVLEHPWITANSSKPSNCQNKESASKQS
Protocol: as §2

[13] = average of A549, HT29, Saos-2, read-out: 72-h MTT IC50 Average
[14] = in vitro, read-out: IC50 value (average) against one or more transformed human cell lines, 72-h MTT cytotoxicity assay

SMILES | IC50 [1] | IC50 [2] | IC50 [3] | Ki [4] | Ki [5] | Ki [6] | IC50 [7, 13] | IC50 [7, 14] | Ki [8] | Ki [9] | Ki [10] | Ki [11] | Ki [12]
Cc1nc(C)c(-c2ccnc(Nc3cccnc3)n2)s1 [Compound 1, [4-(2,4-Dimethyl-thiazol-5-yl)-pyrimidin-2-yl]-pyridin-3-yl-amine] | 3700 nM | 3200 nM | 3700 nM | 340 nM | 80 nM | 110 nM | 3600 ± 300 nM | < 10000 nM |  |  |  |  | 
Cc1c(-c2ccnc(Nc3ccc(Cl)nc3)n2)sc(=O)n1C [Compound 4, 5-[2-(6-chloro-pyridin-3-ylamino)-pyrimidin-4-yl]-3,4-dimethyl-3H-thiazol-2-one] | 1700 nM | 1100 nM | 600 nM |  | 21 nM | 140 nM | 1100 ± 600 nM |  | 1500 nM | 11 nM |  |  | 
COc1ccc(Nc2nccc(-c3sc(N)nc3C)n2)cn1 [Compound 5, [4-(2-Amino-4-methyl-thiazol-5-yl)-pyrimidin-2-yl]-(6-methoxy-pyridin-3-yl)-amine] | 3100 nM | 3500 nM | 4000 nM | 60 nM | 5 nM | 70 nM | 3500 ± 400 nM | < 10000 nM | 5500 nM | 350 nM | 710 nM | 950 nM | 
COc1ccc(Nc2nccc(-c3sc(C)nc3C)n2)cn1 [Compound 6, [4-(2,4-Dimethyl-thiazol-5-yl)-pyrimidin-2-yl]-(6-methoxy-pyridin-3-yl)-amine] | 7500 nM | 5100 nM | 1400 nM | 460 nM | 280 nM | 130 nM | 4600 ± 3100 nM | < 10000 nM | 2800 nM |  | 1400 nM | 1400 nM | 
Cc1nc(N)sc1-c1ccnc(Nc2ccc(Cl)nc2)n1 [Compound 7, [4-(2-Amino-4-methyl-thiazol-5-yl)-pyrimidin-2-yl]-(6-chloro-pyridin-3-yl)-amine] | 3100 nM | 3300 nM | 3400 nM | 70 nM | 5 nM | 50 nM | 3200 ± 100 nM | < 10000 nM | 2000 nM | 160 nM | 1500 nM | 860 nM | 
CNc1nc(C)c(-c2ccnc(Nc3ccc(OC)nc3)n2)s1 [Compound 8, (6-Methoxy-pyridin-3-yl)-[4-(4-methyl-2-methylamino-thiazol-5-yl)-pyrimidin-2-yl]-amine] | 1700 nM | 1400 nM | 2000 nM | 40 nM | 6 nM | 30 nM | 1700 ± 300 nM |  | 840 nM | 50 nM | 430 nM | 270 nM | 
CNc1nc(C)c(-c2ccnc(Nc3ccc(Cl)nc3)n2)s1 [Compound 9, (6-Chloro-pyridin-3-yl)-[4-(4-methyl-2-methylamino-thiazol-5-yl)-pyrimidin-2-yl]-amine] | 5200 nM | 3700 nM | 4700 nM | 980 nM | 110 nM | 80 nM | 4600 ± 800 nM | < 10000 nM |  |  |  | 480 nM | 1000 nM
COc1ccc(Nc2nccc(-c3sc(N(C)C)nc3C)n2)cn1 [Compound 10, [4-(2-Dimethylamino-4-methyl-thiazol-5-yl)-pyrimidin-2-yl]-(6-methoxy-pyridin-3-yl)-amine] | 1800 nM | 2400 nM | 1700 nM | 70 nM | 140 nM | 120 nM | 2000 ± 400 nM |  | 1200 nM | 110 nM | 2300 nM | 330 nM | 
CCn1c(C)c(-c2ccnc(Nc3ccc(OC)nc3)n2)sc1=O [Compound 11, 3-Ethyl-5-[2-(6-methoxy-pyridin-3-ylamino)-pyrimidin-4-yl]-4-methyl-3H-thiazol-2-one] |  |  |  | 1200 nM | 27 nM | 110 nM |  |  | 3400 nM | 13 nM | 230 nM | 370 nM | 
CCNc1nc(C)c(-c2ccnc(Nc3ccc(OC)nc3)n2)s1 [Compound 12, [4-(2-Ethylamino-4-methyl-thiazol-5-yl)-pyrimidin-2-yl]-(6-methoxy-pyridin-3-yl)-amine] | 1500 nM | 1200 nM | 800 nM | 80 nM | 90 nM | 50 nM | 1200 ± 400 nM |  | 100 nM | 60 nM | 130 nM | 30 nM | 
COCCNc1nc(C)c(-c2ccnc(Nc3ccc(OC)nc3)n2)s1 [Compound 13, {4-[2-(2-Methoxy-ethylamino)-4-methyl-thiazol-5-yl]-pyrimidin-2-yl}-(6-methoxy-pyridin-3-yl)-amine] |  |  |  | 250 nM | 120 nM | 250 nM |  |  | 2300 nM | 100 nM | 650 nM | 950 nM | 
Cc1nc(C)c(-c2ccnc(Nc3ccc(N4CCCC4)nc3)n2)s1 [Compound 14, [4-(2,4-Dimethyl-thiazol-5-yl)-pyrimidin-2-yl]-(6-pyrrolidin-1-yl-pyridin-3-yl)-amine] | 320 nM | 300 nM |  | 2600 nM | 100 nM |  | 300 nM |  | 2100 nM |  | 730 nM | 1400 nM | 120 nM
CNc1nc(C)c(-c2ccnc(Nc3ccc(N4CCN(C)CC4)nc3)n2)s1 [Compound 15, [4-(4-Methyl-2-methylamino-thiazol-5-yl)-pyrimidin-2-yl]-[6-(4-methyl-piperazin-1-yl)-pyridin-3-yl]-amine] |  |  |  | 80 nM | 80 nM |  |  |  |  | 2900 nM | 280 nM | 1500 nM | 
